Source: ChEMBL document CHEMBL1131101, “2-, 5-, and 6-Halo-3-(2(S)-azetidinylmethoxy)pyridines: synthesis, affinity for nicotinic acetylcholine receptors, and molecular modeling” (J Med Chem, 1998)

Target: Neuronal acetylcholine receptor; alpha4/beta2 (Rattus norvegicus, UniProt P09483+P12390)
Assay: Binding affinity for alpha4 beta-2 nAChR using [3H]epibatidine in rat brain
Assay type: tissue-based

Chain of Neuronal acetylcholine receptor; alpha4/beta2 (P09483 whole entry): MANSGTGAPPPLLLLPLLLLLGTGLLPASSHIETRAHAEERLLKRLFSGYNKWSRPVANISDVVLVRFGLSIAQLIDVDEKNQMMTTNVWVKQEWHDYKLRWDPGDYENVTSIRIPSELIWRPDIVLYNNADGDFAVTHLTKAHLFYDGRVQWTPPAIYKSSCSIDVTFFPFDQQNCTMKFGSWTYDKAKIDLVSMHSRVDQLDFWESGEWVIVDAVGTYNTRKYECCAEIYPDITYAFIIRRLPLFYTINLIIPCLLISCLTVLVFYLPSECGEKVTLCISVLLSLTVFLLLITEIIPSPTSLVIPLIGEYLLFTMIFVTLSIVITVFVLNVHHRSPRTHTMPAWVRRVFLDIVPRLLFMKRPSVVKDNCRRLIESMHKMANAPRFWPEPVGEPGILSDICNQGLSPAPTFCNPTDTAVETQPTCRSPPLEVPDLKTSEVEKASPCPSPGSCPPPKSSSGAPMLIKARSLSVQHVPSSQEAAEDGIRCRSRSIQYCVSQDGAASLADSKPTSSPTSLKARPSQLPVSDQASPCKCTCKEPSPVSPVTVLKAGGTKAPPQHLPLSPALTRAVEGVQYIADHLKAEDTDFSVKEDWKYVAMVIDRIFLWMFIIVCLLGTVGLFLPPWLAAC
Chain of Neuronal acetylcholine receptor; alpha4/beta2 (P12390 whole entry): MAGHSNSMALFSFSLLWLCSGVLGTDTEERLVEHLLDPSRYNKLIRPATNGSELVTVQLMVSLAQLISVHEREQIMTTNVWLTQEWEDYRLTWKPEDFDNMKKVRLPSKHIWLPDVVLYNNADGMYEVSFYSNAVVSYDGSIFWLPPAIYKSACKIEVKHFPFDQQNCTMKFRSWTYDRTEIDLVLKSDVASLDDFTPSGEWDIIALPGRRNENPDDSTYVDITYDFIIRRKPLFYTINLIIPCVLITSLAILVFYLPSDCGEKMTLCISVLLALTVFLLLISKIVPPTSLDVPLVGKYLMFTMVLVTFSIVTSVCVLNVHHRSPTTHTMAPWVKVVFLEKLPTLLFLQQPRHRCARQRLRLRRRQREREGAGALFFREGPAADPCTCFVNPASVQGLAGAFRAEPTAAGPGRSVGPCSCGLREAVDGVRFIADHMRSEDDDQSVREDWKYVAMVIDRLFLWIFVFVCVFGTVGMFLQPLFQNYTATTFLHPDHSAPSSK

Row | SMILES | Ki [nM]
1 | Brc1ncccc1OC[C@@H]1CCN1 | 0.24
2 | c1cncc(OC[C@@H]2CCN2)c1 | 0.017
3 | Fc1cncc(OC[C@@H]2CCN2)c1 | 0.025
4 | Ic1ccc(OC[C@@H]2CCN2)cn1 | 0.15
5 | Fc1ccc(OC[C@@H]2CCN2)cn1 | 0.025
6 | Brc1cncc(OC[C@@H]2CCN2)c1 | 0.021
7 | Clc1cncc(OC[C@@H]2CCN2)c1 | 0.03
8 | Ic1ncccc1OC[C@@H]1CCN1 | > 0.001
9 | Clc1ncccc1OC[C@@H]1CCN1 | 0.0084
